Reference: paper PMC11003925, “Antimicrobial activity and properties of de novo design of short synthetic lipopeptides” (Folia Microbiologica, 2024)
Values after ≈ are worked out from the molar mass of the structure shown. Residues, ends and D or L forms follow the SMILES beside them. *: point of attachment. Palmitoyl = CCCCCCCCCCCCCCCC(=O)*

What was measured:
E. faecalis DBM 3075 = assay type: cell-based
Procedure: (§1) A Bioscreen C automated microbiology growth curve analysis system (Growth Curves, Piscataway, NJ, USA) was used for the quantitative determination of antimicrobial activity (minimal inhibitory concentration, MIC) of PAL/LCA-peptides. Optical density was measured with a wide bandpass filter (wavelength range 420–580 nm) at regular intervals and temperatures. This assay was performed in a special microtiter plate (10 × 10 wells) that allowed the simultaneous testing of a large number of samples against several microorganisms. The total testing volume was 100 µL, obtained by mixing 10 µL of microbial culture with OD600 equal to 0.1 with growth medium and a solution of the tested compounds. The positive controls were vancomycin and tetracycline for Bacillus subtilis (100 µg/mL) for Gram-positive bacteria, kanamycin, and tetracycline for Acinetobacter baumannii (100 µg/mL) for Gram-negative bacteria, and clotrimazole or amphotericin (100 µg/mL) for fungi. The maximal concentration of tested lipoproteins was 1 mg/mL. A pure growth medium was used as the negative control. The measurement period was 25 h. The lowest concentration with a 100% inhibition effect for 24 h of incubation was chosen as the MIC. The antibacterial activity of each compound was expressed as the minimum inhibitory concentration MIC (MIC is the lowest concentration of the compound needed to inhibit the growth of bacterial cells) and IC50 (IC50 is the concentration of the compound needed to inhibit the growth of bacterial cells by 50%).

E. coli DBM 3001 = assay type: cell-based
Procedure: as §1

Staph. aureus DBM 3002 = assay type: cell-based, Staphylococcus aureus
Procedure: as §1

Staph. aureus MRSA1 = assay type: cell-based, Staphylococcus aureus
Procedure: as §1

A. baumannii DBM 3183 = assay: microbe, parasite or virus in culture; assay type: cell-based, Acinetobacter baumannii; conditions: DBM 3183, 25 h
Procedure: as §1

HEK293T = assay: Cytotoxicity assay (xCELLigence impedance); assay type: cell-based, human; conditions: 24 h exposure
Procedure: (§2) Experiments were carried out using an xCELLigence RTCA DP Instrument (Roche Diagnostics GmbH, Mannheim, Germany) which was placed into an incubator (37 °C and 5% CO2). Cell proliferation and cytotoxicity experiments were performed using modified 16-well plates (E-plate, Roche Diagnostics GmbH, Mannheim, Germany). Microelectrodes were attached to the bottom of the wells for the impedance-based detection of attachment, spreading, and proliferation of the cells (Stoddart [2011]). This system monitors cellular events in real time without the incorporation of labels by measuring electrical impedance across an interdigitated microelectrode integrated into the bottom of this special tissue culture plate. This impedance measurement improves upon conventional endpoint assays and provides quantitative information about the biological status of the cells, including cell number, adhesion, viability, and morphology. Ninety microliters of cultivation medium was used for the blank sample, and subsequently, 100 µL of HepG2 or HEK293T cell suspension (7 × 10^5 cells/mL) was added and placed into the incubator (37 °C, 95% humidity, 5% CO2). […] Chrysophsin-3 at a concentration of 100 µg/mL was used as a positive control and solvent (deionized water) as a negative control. Subsequent incubation was performed for at least an additional 24 h. The result of the measurement was viability curves. After the measurement, percentages of tissue culture growth inhibition were calculated for all the tested substances, as follows: %inhibition=(1-(ΔϕCIsample)/(ΔϕCIcontrol))·100
(§3) Δ∅CIsample … the difference between the first and last average CI (cell index) values of the tissue culture in the presence of the tested sample.
(§4) Δ∅CIcontrol … the difference between the first and last average CI values of the tissue culture itself.

HepG2 = assay: Cytotoxicity assay (xCELLigence impedance); assay type: cell-based, human; conditions: 24 h exposure
Procedure: as §2, §3, §4

- MIC (E. faecalis DBM 3075; DBM 3075, 24 h): 32.6 µg/mL (≈ 37 µM)
- IC50 (E. faecalis DBM 3075; DBM 3075, 25 h): 40 µg/mL (≈ 45.4 µM)
- MIC (E. coli DBM 3001; DBM 3001, 24 h): 78.9 µg/mL (≈ 89.6 µM)
- IC50 (E. coli DBM 3001; DBM 3001, 25 h): 100.0 µg/mL (≈ 114 µM)
- MIC (Staph. aureus DBM 3002; 24 h): 27.7 µg/mL (≈ 31.5 µM)
- IC50 (Staph. aureus DBM 3002; 25 h): 50.0 µg/mL (≈ 56.8 µM)
- MIC (Staph. aureus MRSA1; 24 h): 7.8 µg/mL (≈ 8.86 µM)
- IC50 (Staph. aureus MRSA1; 25 h): 12.5 µg/mL (≈ 14.2 µM)
- IC50 (A. baumannii DBM 3183): 60.0 µg/mL (≈ 68.2 µM)
SMILES: CCCCCCCCCCCCCCCC(=O)N[C@@H](CC(C)C)C(=O)N[C@H](C(=O)N[C@@H](CCCCN)C(=O)N[C@@H](CCCNC(=N)N)C(=O)N[C@@H](C)C(=O)NCC(N)=O)C(C)C [SHP-1.2, PAL-LVKRAG-NH2] (Palmitoyl-LVKRAG-NH2)
- % inhibition (HEK293T; c 50 µg/mL): 37.6 ± 5.6%
- % inhibition (HEK293T; c 100 µg/mL): 77.8 ± 11.7%
- % inhibition (HEK293T; c 200 µg/mL): 73.1 ± 11.0%
- % inhibition (HepG2; c 50 µg/mL): 4.1 ± 0.6%
- % inhibition (HepG2; c 100 µg/mL): 42.2 ± 6.3%
- % inhibition (HepG2; c 200 µg/mL): 67.9 ± 10.2%
